Assay results reported in article PMC10208956, “Microbial peptides activate tumour-infiltrating lymphocytes in glioblastoma” (Nature, 2023).

Assays:
[1] = test system: bulk TILs (patient 1635WI); test: Cytokine and chemokine secretion of bulk TILs stimulated with IPdBPs; assay type: cell-based, human; design: key to CD40 Ligand / Flt-3 Ligand / GM-CSF / Granzyme B / IFN-α / IFN-γ / IL-1rα / IL-1α / IL-1β / IL-2 / IL-3 / IL-4 / IL-5 / IL-6 / IL-7 / IL-10 / IL-12p70 / IL-13 / IL-15 / IL-17A / IL-33 / TNF-α / RANTES: pg/mL, negative-control amount subtracted; CXCL2/GROβ / CXCL10/IP-10 / CCL2/MCP-1 / CCL3/MIP-1α / CCL4/MIP-1β: unit not given beside the values; settings: secretion by bulk TILs after peptide stimulation; sheet 1e
Excerpt: Fig. 1 Elution of HLA class II-presented bacterial peptides from 19 glioblastomas and the stimulatory effect of IPdBPs on bulk TILs. a, Schematic of the immunopeptidome analyses of glioblastoma tissue, from which eluted peptides were annotated using the UniProt bacteria database (1). TILs or peripheral memory T cells were stimulated with IPdBPs (2 and 3). LC–MS, liquid chromatography–mass spectrometry; PBMC, peripheral blood mononuclear cell. The images in panel a were created using BioRender (https://biorender.com). b, Number of unique IPdBPs in patients with glioblastoma (n = 19) (data from patient 1635WI contains both primary and recurrent tumours together), with 344 unique IPdBPs identified (left). These peptides originated from 255 and 199 unique proteins and bacteria, respectively (3 technical replicates). […] As a control, peptidome data were also annotated using human protein database to identify eluted self-peptides. As shown, most of HLA class II-bound peptides are self-(human) peptides. IPdBPs of primary (bottom left, n = 18) and recurrent (bottom right, n = 23) tumours were separately annotated to their source bacteria at the phylum level. d, Bulk TILs (patient 1635WI) were stimulated with IPdBPs (See Supplementary Table 8), each in five replicate wells, and proliferation was measured after 5 days via ^3H-thymidine incorporation. […] The data are expressed as the mean value of all wells ± s.e.m. SIN3A* peptide was used as a positive control as TILs recognize this tumour antigen. T cells with APCs without any stimuli were used as a negative control. e, Heatmap of cytokine and chemokine secretion of TILs stimulated with three IPdBPs, which weakly stimulated proliferation. The secretion of each cytokine and chemokine was calculated by subtracting the corresponding cytokine and chemokine amount (pg ml^−1) of the negative control. TILs with APCs without any stimuli were used as a negative control. Also see Extended Data Fig. 1. Source data
(§1) Supernatants from each experiment were harvested a day before adding thymidine and frozen at −20 °C. Cytokines were measured using ELISA for human IFNγ ELISA MAX (BioLegend), human GM-CSF DuoSet ELISA (R&D Systems) and bead-based assays. A Synergy H1 hybrid multi-mode reader (Agilent) was used to measure the absorbance. The LEGENDplex Multi-analyte Flow Assay kit (BioLegend) is a 13-plex human TH cytokine panel, which includes IFNγ, TNF, IL-2, IL-4, IL-5, IL-6, IL-9, IL-10, IL-13, IL-17A, IL-17F, IL-21 and IL-22. […] LSR Fortessa Flow Cytometer (BD Biosciences) was used to measure cytokines, and data were analysed using FlowJo (Tree Star). The Human XL Cytokine Luminex Performance Assay Fixed Panel (R&D Systems) contains 45 analytes covering a broad range of various chemokines and cytokines.

TCC88 = test: Cytokine and chemokine secretion of TCC88 after peptide stimulation; assay type: cell-based, human; settings: TCC88 supernatant after peptide stimulation; no peptide control subtracted; Fig. 3e
Excerpt: Fig. 3 Bacteria-derived and microbiota-derived peptides can stimulate TCC88 as well as the tumour antigen. a, Peptides with the highest predicted stimulatory scores were identified by searching various databases (see Methods). Numbers of unique 10-mer peptides within each database, synthesized peptides, TCC88 stimulatory peptides and the corresponding percentage of stimulatory peptides within each database are shown. […] Cytokine and chemokine secretion of TCC88 was examined and compared upon stimulation with these three different antigens. A specific amount of each cytokine and chemokine (pg ml^−1) was calculated by subtracting the cytokines in the negative control cultures (no peptide control). f, Cytotoxicity of TCC88 against the autologous tumour cell line after stimulation with 2 µM of SIN3A* and HGM3 (data represent the mean percentage of two replicate wells). E:T, effector to target. g, TCC88 was tested with HGM3 (10 µM) or SIN3A* (10 µM) peptides or both together (each 10 µM), and ^3H-thymidine incorporation was measured after 3 days (data represent the mean SI value of three replicate wells ± s.e.m.). Also see Extended Data Figs. 3 and 4. Source data
as §1

## Ac-QPVEFNHAIHYVN-NH2 [SIN3A*]
[1]
  CCL2/MCP-1: 2816.44
  CCL3/MIP-1α: 29.38
  CCL4/MIP-1β: 288.41
  CCL11/Eotaxin: 0
  CCL19/MIP-3β: 3.84
  CCL20/MIP-3α: 5.69
  CD40 Ligand: 1225.7
  CXCL1/GROα: 401.05
  CXCL2/GROβ: 208.21
  CXCL8/IL-8: 3621.56
  CXCL10/IP-10: 192.55
  Flt-3 Ligand: 87.97
  GM-CSF: 322.89
  Granzyme B: 136.59
  IFN-α: 1.52
  IFN-γ: 41.34
  IL-1rα: 1593.54
  IL-1α: 6.01
  IL-1β: 5.99
  IL-2: 5.92
  IL-3: 55.24
  IL-4: 3.08
  IL-5: 16.46
  IL-6: 23.1
  IL-7: 0.95
  IL-10: 62.69
  IL-12p70: 0
  IL-13: 67.23
  IL-15: 2.11
  IL-17A: 2.07
  IL-17E/IL-25: 0
  IL-33: 6.61
  RANTES: 135
  TNF-α: 366.07
TCC88
  CCL20/MIP-3α: 15.37 pg/mL
  CD40 Ligand: 2926.92 pg/mL
  CXCL1/GROα: 71.75 pg/mL
  CXCL2/GROβ: 125.05 pg/mL
  CXCL8/IL-8: 0 pg/mL
  CXCL10/IP-10: 22.77 pg/mL
  Flt-3 Ligand: 138.99 pg/mL
  Fractalkine: 649.3 pg/mL
  GM-CSF: 12306.4 pg/mL
  Granzyme B: 3726.29 pg/mL
  IFN-α: 6.21 pg/mL
  IFN-γ: 2158.92 pg/mL
  IL-1rα: 2936.96 pg/mL
  IL-1α: 18.71 pg/mL
  IL-1β: 19.49 pg/mL
  IL-2: 1202.18 pg/mL
  IL-3: 486.43 pg/mL
  IL-4: 244.81 pg/mL
  IL-5: 13.04 pg/mL
  IL-6: 272.8 pg/mL
  IL-7: 2.58 pg/mL
  IL-10: 469.8 pg/mL
  IL-12p70: 34.04 pg/mL
  IL-13: 1544.08 pg/mL
  IL-15: 2.67 pg/mL
  IL-17A: 3.91 pg/mL
  IL-17E/IL-25: 6.04 pg/mL
  IL-33: 26.68 pg/mL
  TNF-α: 10260.2 pg/mL
